Assay results taken from the NIST ThermoML archive (doi:10.1016/j.jct.2014.07.019).
± gives the expanded uncertainty stated by the source.

Columns and labels:
[1] = 100 kPa, Liquid; for speed of sound: Frequency=3 MHz, Sing-around technique in a fixed-path interferometer; for mass density: Vibrating tube method
[2] = xn = mol fraction of the nth substance listed; conditions: 100 kPa, Liquid, x2 = 0; for speed of sound: Frequency=3 MHz, Sing-around technique in a fixed-path interferometer; for mass density: Vibrating tube method

CCCCOCC(C)O (stereo not given) [1-butoxy-2-propanol]
speed of sound ([1]; 293.15 K): 1279 ± 1.3 m/s
mass density ([1]; 293.15 K): 879.031 ± 0.15 kg/m3
speed of sound ([1]; 298.15 K): 1260.9 ± 1.3 m/s
mass density ([1]; 298.15 K): 874.632 ± 0.15 kg/m3
speed of sound ([1]; 303.15 K): 1242.9 ± 1.3 m/s
mass density ([1]; 303.15 K): 870.204 ± 0.15 kg/m3
speed of sound ([1]; 308.15 K): 1224.9 ± 1.3 m/s
mass density ([1]; 308.15 K): 865.737 ± 0.15 kg/m3
speed of sound ([1]; 313.15 K): 1207 ± 1.3 m/s
mass density ([1]; 313.15 K): 861.241 ± 0.15 kg/m3

CCCCO [butan-1-ol]
speed of sound ([1]; 293.15 K): 1257.5 ± 1.2 m/s
mass density ([1]; 293.15 K): 809.807 ± 0.15 kg/m3
speed of sound ([1]; 298.15 K): 1240.6 ± 1.2 m/s
mass density ([1]; 298.15 K): 805.986 ± 0.15 kg/m3
speed of sound ([1]; 303.15 K): 1223.7 ± 1.2 m/s
mass density ([1]; 303.15 K): 802.139 ± 0.15 kg/m3
speed of sound ([1]; 308.15 K): 1207 ± 1.2 m/s
mass density ([1]; 308.15 K): 798.261 ± 0.15 kg/m3
speed of sound ([1]; 313.15 K): 1190.5 ± 1.2 m/s
mass density ([1]; 313.15 K): 794.385 ± 0.15 kg/m3

CCCCO [butan-1-ol] + CCCCOCC(C)O
speed of sound ([2]; 293.15 K): 1257.5 ± 1.2 m/s
mass density ([2]; 293.15 K): 809.807 ± 0.15 kg/m3
speed of sound ([2]; 298.15 K): 1240.6 ± 1.2 m/s
mass density ([2]; 298.15 K): 805.986 ± 0.15 kg/m3
speed of sound ([2]; 303.15 K): 1223.7 ± 1.2 m/s
mass density ([2]; 303.15 K): 802.139 ± 0.15 kg/m3
speed of sound ([2]; 308.15 K): 1207 ± 1.2 m/s
mass density ([2]; 308.15 K): 798.261 ± 0.15 kg/m3
speed of sound ([2]; 313.15 K): 1190.5 ± 1.2 m/s
mass density ([2]; 313.15 K): 794.385 ± 0.15 kg/m3

CCC(C)O (stereo not given) [butan-2-ol]
speed of sound ([1]; 293.15 K): 1230.2 ± 1.3 m/s
mass density ([1]; 293.15 K): 806.679 ± 0.16 kg/m3
speed of sound ([1]; 298.15 K): 1213.3 ± 1.3 m/s
mass density ([1]; 298.15 K): 802.563 ± 0.16 kg/m3
speed of sound ([1]; 303.15 K): 1197.2 ± 1.2 m/s
mass density ([1]; 303.15 K): 798.352 ± 0.16 kg/m3
speed of sound ([1]; 308.15 K): 1177 ± 1.2 m/s
mass density ([1]; 308.15 K): 794.058 ± 0.17 kg/m3
speed of sound ([1]; 313.15 K): 1158.9 ± 1.2 m/s
mass density ([1]; 313.15 K): 789.668 ± 0.17 kg/m3

CCC(C)O (stereo not given) [butan-2-ol] + CCCCOCC(C)O
speed of sound ([2]; 293.15 K): 1230.2 ± 1.3 m/s
mass density ([2]; 293.15 K): 806.679 ± 0.16 kg/m3
speed of sound ([2]; 298.15 K): 1213.3 ± 1.3 m/s
mass density ([2]; 298.15 K): 802.563 ± 0.16 kg/m3
speed of sound ([2]; 303.15 K): 1197.2 ± 1.2 m/s
mass density ([2]; 303.15 K): 798.352 ± 0.16 kg/m3
speed of sound ([2]; 308.15 K): 1177 ± 1.2 m/s
mass density ([2]; 308.15 K): 794.058 ± 0.17 kg/m3
speed of sound ([2]; 313.15 K): 1158.9 ± 1.2 m/s
mass density ([2]; 313.15 K): 789.668 ± 0.17 kg/m3

CCCO [propan-1-ol]
speed of sound ([1]; 293.15 K): 1224.2 ± 1.3 m/s
mass density ([1]; 293.15 K): 804.144 ± 0.16 kg/m3
speed of sound ([1]; 298.15 K): 1207 ± 1.3 m/s
mass density ([1]; 298.15 K): 800.13 ± 0.16 kg/m3
speed of sound ([1]; 303.15 K): 1189.8 ± 1.2 m/s
mass density ([1]; 303.15 K): 796.08 ± 0.16 kg/m3
speed of sound ([1]; 308.15 K): 1172.8 ± 1.2 m/s
mass density ([1]; 308.15 K): 792.001 ± 0.17 kg/m3
speed of sound ([1]; 313.15 K): 1156.2 ± 1.2 m/s
mass density ([1]; 313.15 K): 787.884 ± 0.17 kg/m3

CCCO [propan-1-ol] + CCCCOCC(C)O
speed of sound ([2]; 293.15 K): 1224.2 ± 1.3 m/s
mass density ([2]; 293.15 K): 804.144 ± 0.16 kg/m3
speed of sound ([2]; 298.15 K): 1207 ± 1.3 m/s
mass density ([2]; 298.15 K): 800.13 ± 0.16 kg/m3
speed of sound ([2]; 303.15 K): 1189.8 ± 1.2 m/s
mass density ([2]; 303.15 K): 796.08 ± 0.16 kg/m3
speed of sound ([2]; 308.15 K): 1172.8 ± 1.2 m/s
mass density ([2]; 308.15 K): 792.001 ± 0.17 kg/m3
speed of sound ([2]; 313.15 K): 1156.2 ± 1.2 m/s
mass density ([2]; 313.15 K): 787.884 ± 0.17 kg/m3

CC(C)O [propan-2-ol]
speed of sound ([1]; 293.15 K): 1168.5 ± 1.2 m/s
mass density ([1]; 293.15 K): 785.739 ± 0.15 kg/m3
speed of sound ([1]; 298.15 K): 1148 ± 1.2 m/s
mass density ([1]; 298.15 K): 781.588 ± 0.15 kg/m3
speed of sound ([1]; 303.15 K): 1132.2 ± 1.2 m/s
mass density ([1]; 303.15 K): 777.468 ± 0.15 kg/m3
speed of sound ([1]; 308.15 K): 1114.3 ± 1.1 m/s
mass density ([1]; 308.15 K): 773.151 ± 0.15 kg/m3
speed of sound ([1]; 313.15 K): 1096.2 ± 1.1 m/s
mass density ([1]; 313.15 K): 768.446 ± 0.15 kg/m3

CC(C)O [propan-2-ol] + CCCCOCC(C)O
speed of sound ([2]; 293.15 K): 1168.5 ± 1.2 m/s
mass density ([2]; 293.15 K): 785.739 ± 0.15 kg/m3
speed of sound ([2]; 298.15 K): 1148 ± 1.2 m/s
mass density ([2]; 298.15 K): 781.588 ± 0.15 kg/m3
speed of sound ([2]; 303.15 K): 1132.2 ± 1.2 m/s
mass density ([2]; 303.15 K): 777.468 ± 0.15 kg/m3
speed of sound ([2]; 308.15 K): 1114.3 ± 1.1 m/s
mass density ([2]; 308.15 K): 773.151 ± 0.15 kg/m3
speed of sound ([2]; 313.15 K): 1096.2 ± 1.1 m/s
mass density ([2]; 313.15 K): 768.446 ± 0.15 kg/m3
